The source made the active and inactive calls.
What was measured:
[1] = viability of uninfected HEp-2 cells – cell-based, HTS, cytotoxicity control for RSV inhibitor project, dose response (AID 2410); format: functional; conditions: human respiratory syncytial virus
Cytochrome P450 2C19 = Cytochrome P450 2C19 (Homo sapiens, UniProt P33261); assay: Cytochrome panel assay with activity outcomes. Panel member name: p450-cyp2c19 Compounds with AC50 equal or less than 10 uM are considered active; format: functional
Chain of Cytochrome P450 2C19 (P33261 whole entry): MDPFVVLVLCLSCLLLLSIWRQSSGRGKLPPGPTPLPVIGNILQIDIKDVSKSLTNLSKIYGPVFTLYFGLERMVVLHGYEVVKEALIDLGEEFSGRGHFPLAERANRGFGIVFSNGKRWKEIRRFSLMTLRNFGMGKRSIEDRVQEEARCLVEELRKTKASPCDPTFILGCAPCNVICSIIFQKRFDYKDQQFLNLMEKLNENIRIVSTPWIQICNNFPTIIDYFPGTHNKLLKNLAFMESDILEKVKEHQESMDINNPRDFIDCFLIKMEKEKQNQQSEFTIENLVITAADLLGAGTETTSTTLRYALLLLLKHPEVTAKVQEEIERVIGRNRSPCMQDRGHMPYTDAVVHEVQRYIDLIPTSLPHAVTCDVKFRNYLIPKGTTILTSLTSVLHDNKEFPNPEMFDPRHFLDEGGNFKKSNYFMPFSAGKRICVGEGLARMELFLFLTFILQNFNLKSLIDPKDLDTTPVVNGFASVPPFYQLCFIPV

Cytochrome P450 2C9 = Cytochrome P450 2C9 (Homo sapiens, UniProt P11712)
Chain of Cytochrome P450 2C9 (P11712 whole entry): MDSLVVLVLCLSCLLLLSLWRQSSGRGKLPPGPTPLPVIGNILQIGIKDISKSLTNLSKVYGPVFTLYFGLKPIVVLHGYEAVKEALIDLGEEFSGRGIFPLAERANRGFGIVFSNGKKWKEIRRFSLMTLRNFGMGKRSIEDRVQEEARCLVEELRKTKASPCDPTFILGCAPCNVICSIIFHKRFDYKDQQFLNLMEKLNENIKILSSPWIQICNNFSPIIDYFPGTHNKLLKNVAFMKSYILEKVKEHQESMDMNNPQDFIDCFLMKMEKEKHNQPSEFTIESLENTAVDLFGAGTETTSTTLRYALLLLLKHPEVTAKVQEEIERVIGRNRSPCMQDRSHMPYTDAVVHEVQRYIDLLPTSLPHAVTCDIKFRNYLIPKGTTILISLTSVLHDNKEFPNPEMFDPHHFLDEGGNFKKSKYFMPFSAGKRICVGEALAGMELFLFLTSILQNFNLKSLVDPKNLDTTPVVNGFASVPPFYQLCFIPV

Streptococcus = assay: GAS UMAA2166 growth inhibition – luminescence, BacTiterGlo, counter-screen for streptokinase expression inhibitor project, dose response (AID 1915); format: functional, organism-based;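 further: potency for reduction of bacterial viability or growth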
[2] = tested on: Streptococcus sp. 'group A'; assay: Streptococcus pyogenes SK(-)GAS viability under kanamycin – luminescence, BacTiterGlo, confirmation, counter-screen for streptokinase expression inhibitor project, dose response (AID 1900); format: functional, organism-based
Cytochrome P450 3A4 = Cytochrome P450 3A4 (Homo sapiens, UniProt P08684);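 further: CYP3A4 tested as one member of a cytochrome P450 panel screen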
Chain of Cytochrome P450 3A4 (P08684 whole entry): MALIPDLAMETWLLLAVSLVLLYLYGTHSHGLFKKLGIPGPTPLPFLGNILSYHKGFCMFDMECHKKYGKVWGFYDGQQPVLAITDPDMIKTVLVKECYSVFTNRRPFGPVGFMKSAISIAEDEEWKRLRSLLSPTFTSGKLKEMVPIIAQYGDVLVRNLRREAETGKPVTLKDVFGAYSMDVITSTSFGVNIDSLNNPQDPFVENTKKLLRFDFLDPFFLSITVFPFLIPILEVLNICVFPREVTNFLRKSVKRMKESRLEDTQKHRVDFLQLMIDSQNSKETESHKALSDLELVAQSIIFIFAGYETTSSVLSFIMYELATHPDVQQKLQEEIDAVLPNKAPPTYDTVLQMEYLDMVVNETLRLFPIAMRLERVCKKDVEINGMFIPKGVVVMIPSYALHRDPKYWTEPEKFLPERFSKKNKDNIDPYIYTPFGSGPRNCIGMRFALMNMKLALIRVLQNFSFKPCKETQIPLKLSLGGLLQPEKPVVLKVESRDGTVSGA

[3] = target: T1, Rac GTPase-activating protein 1 (Homo sapiens, UniProt Q9H0H5); assay: blockers of MgcRacGAP-driven Rac1 GTP hydrolysis – biochemical, ADP Hunter fluorescence, primary and confirmatory, confirmation (AID 624330); format: functional
T1 sequence (Q9H0H5 whole entry): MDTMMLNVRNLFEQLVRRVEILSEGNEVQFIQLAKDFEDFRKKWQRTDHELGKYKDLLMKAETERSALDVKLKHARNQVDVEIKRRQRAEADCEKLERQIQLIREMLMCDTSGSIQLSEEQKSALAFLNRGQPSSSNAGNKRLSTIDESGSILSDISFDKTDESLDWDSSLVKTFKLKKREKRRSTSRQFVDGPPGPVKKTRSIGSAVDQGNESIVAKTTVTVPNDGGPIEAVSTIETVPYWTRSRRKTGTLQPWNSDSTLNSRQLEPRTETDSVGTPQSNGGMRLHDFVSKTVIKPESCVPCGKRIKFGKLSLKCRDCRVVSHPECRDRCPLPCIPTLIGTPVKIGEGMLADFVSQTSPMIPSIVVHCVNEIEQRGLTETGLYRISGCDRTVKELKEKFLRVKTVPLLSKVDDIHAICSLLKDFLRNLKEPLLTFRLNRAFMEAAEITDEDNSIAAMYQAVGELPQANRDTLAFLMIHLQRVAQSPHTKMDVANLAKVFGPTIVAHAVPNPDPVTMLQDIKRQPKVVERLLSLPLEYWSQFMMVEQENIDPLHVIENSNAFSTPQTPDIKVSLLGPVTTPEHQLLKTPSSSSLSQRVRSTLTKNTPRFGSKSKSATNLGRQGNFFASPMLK

Protein RecA = target: T2, Protein RecA (Mycobacterium tuberculosis, UniProt P9WHJ3); assay: Fluorescence Cell-Free Homogeneous Dose Retest to Identify Inhibitors of RecA-Intein Splicing Activity. [Related pubchem assays (depositor defined):AID2097, AID2223, AID489010, AID492950]; format: functional
T2 sequence (P9WHJ3 whole entry): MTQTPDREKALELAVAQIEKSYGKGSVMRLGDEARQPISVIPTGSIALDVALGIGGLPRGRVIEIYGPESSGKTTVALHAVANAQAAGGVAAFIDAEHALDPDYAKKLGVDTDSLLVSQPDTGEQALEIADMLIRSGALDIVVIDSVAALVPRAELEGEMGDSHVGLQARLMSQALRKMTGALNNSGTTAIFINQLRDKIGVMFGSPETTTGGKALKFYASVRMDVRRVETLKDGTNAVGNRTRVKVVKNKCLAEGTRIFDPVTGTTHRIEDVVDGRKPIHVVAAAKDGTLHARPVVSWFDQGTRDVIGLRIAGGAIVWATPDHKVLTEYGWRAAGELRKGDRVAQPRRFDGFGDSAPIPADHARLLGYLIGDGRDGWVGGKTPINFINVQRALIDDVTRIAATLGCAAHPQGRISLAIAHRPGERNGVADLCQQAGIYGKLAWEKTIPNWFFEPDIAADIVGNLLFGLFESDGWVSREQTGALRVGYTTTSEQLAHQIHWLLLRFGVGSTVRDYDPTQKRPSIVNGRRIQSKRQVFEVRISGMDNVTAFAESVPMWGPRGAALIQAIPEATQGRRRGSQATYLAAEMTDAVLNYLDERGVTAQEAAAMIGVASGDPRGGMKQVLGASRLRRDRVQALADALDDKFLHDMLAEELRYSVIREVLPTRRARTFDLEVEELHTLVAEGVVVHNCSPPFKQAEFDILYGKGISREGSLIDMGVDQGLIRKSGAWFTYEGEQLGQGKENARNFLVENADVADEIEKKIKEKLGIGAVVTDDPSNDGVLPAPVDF

O=C(COC(=O)c1c2ccccc2cc2ccccc12)NCC(F)(F)F
CC50 [1]: 23.6 µM (active)

CCN(C(=O)CSc1nnc(Cn2nnc3ccccc32)o1)c1nc(-c2ccccc2)cs1
CC50 [1]: 26.4 µM (active)

O=C(CN1CCN(c2nc(-c3ccccc3)cs2)CC1)NCc1ccc2c(c1)OCO2
CC50 [1]: 11 µM (active)

O=C(O)[C@H](Cc1cc(I)c(O)c(I)c1)C1CCCCC1
AC50 (Cytochrome P450 2C19; read-out: AC50): 2 µM (inconclusive) | AC50 (Cytochrome P450 2C9): 3.16 µM (inconclusive)

CCC(C#CCN1CCCCC1)(CC)OCCC#N
AC50 (Cytochrome P450 2C9): 0.355 µM (inconclusive)

COc1ccc2c(c1OC)C(=O)OC2Nc1ncccc1C (stereo not given)
AC50 (Cytochrome P450 2C19; read-out: AC50): 39.8 µM (inconclusive)

CCOC(=O)c1cnc2cc(-c3ccc(C(C)(C)C)cc3)nn2c1N
AC50 (Cytochrome P450 2C9): 3.16 µM (inconclusive)

COc1ccc(CSCCN=C(S)Nc2ccccc2)cc1Cl
EC50 (Streptococcus): > 150 µM (not active) | EC50 [2]: 18.5 µM (active)

COc1ccc(C(=O)CC(=O)C(=O)Nc2ccccc2C(F)(F)F)cc1
EC50 (Streptococcus): 8.59 µM (active) | EC50 [2]: 3.52 µM (active)

CS(=O)(=O)N1CCN(c2ccc([N+](=O)[O-])c(NCc3ccccc3)c2)CC1
AC50 (Cytochrome P450 2C19; read-out: AC50): 31.6 µM (inconclusive) | AC50 (Cytochrome P450 3A4): 31.6 µM (inconclusive)

Cc1ccc2nc(NC(=O)COC(=O)CSc3nc(C)cc(C)n3)sc2c1
AC50 (Cytochrome P450 2C19; read-out: AC50): 5.01 µM (inconclusive)

Cc1ccc(-n2cnc3cc(NCc4cccs4)ccc32)cc1
CC50 [1]: 25.3 µM (active)

COc1ccc(NC(=O)CSc2nc(-c3ccc(C)cc3)cc(C(F)(F)F)c2C#N)cc1
AC50 (Cytochrome P450 2C19; read-out: AC50): 20 µM (inconclusive)

COc1cc(/C=C/CN2CCC(CO)(CC3CCCCO3)CC2)ccc1O (stereo not given)
IC50 [3]: 91.2 µM (active)

C=CCOC(=O)C1=C(C)NC(=O)NC1c1ccc(OC(=O)c2ccco2)c(OC)c1 (stereo not given)
EC50 (Protein RecA): 18 µM (active)

CCCC(=O)Nc1nc(C(=O)OCC)cs1
AC50 (Cytochrome P450 2C19; read-out: AC50): 39.8 µM (inconclusive)

O=C(CN1CCN(C(c2ccccc2)c2ccccc2)CC1)N1CCN(c2ccccc2)CC1
CC50 [1]: 23.9 µM (active)

COc1ccc(NC2CCCN(C(=O)c3oc(C)cc3C)C2)cc1OC (stereo not given)
IC50 [3]: 159 µM (active)

Cc1cc(C)c2c(CN3CCN(Cc4ccc5c(c4)OCO5)CC3)cc(=O)oc2c1
CC50 [1]: 16.8 µM (active)

COc1ncc2nc(CCc3ccccc3)c(=O)n(C3CC3)c2n1
AC50 (Cytochrome P450 3A4): 31.6 µM (inconclusive)

CCCc1nc2c(c(=O)c3ccccc3n2C)c(=O)n1-c1cc(C)cc(C)c1
CC50 [1]: > 50 µM (active)

COC(=O)C(O)(c1c(C)[nH]c2ccccc12)C(F)(F)F (stereo not given)
AC50 (Cytochrome P450 2C9): 3.16 µM (inconclusive) | AC50 (Cytochrome P450 3A4): 22.4 µM (inconclusive)

COc1ccc(N(C(=O)Cn2nnc3ccccc32)C2(C(=O)NC3CCCC3)CCCCC2)cc1
AC50 (Cytochrome P450 2C19; read-out: AC50): 14.1 µM (inconclusive) | AC50 (Cytochrome P450 2C9): 22.4 µM (inconclusive)

COCCNc1nc(-c2ccc(C(=O)N(C)C)cc2)nc2ccccc12
AC50 (Cytochrome P450 3A4): 15.8 µM (inconclusive)

Cc1nnc(SCC2=C(C(=O)O)N3C(=O)C(NC(=O)C(C)n4nc(C(F)(F)F)cc4C)C3SC2)s1 (stereo not given)
EC50 (Streptococcus): 0.421 µM (active) | EC50 [2]: 0.201 µM (active)

Cc1nc2cnc(Oc3cccc(Cl)c3)nc2n(CCC#N)c1=O
AC50 (Cytochrome P450 2C9): 39.8 µM (inconclusive)

Cc1ccc(-c2csc(NCCc3nc4cc(Cl)c(Cl)cc4n3CCCO)n2)cc1
CC50 [1]: 28.9 µM (active)

COCC(C)n1c(C)cc(C(=O)COC(=O)c2c(C)nn(-c3ccccc3)c2C)c1C (stereo not given)
CC50 [1]: 29.2 µM (active)

Cc1nn2cc(-c3ccc(N)cc3)nc2s1
IC50 [3]: 110 µM (active)

COc1ccc(C(=O)CN2C(=O)NC(C)(c3ccccc3)C2=O)cc1OC (stereo not given)
AC50 (Cytochrome P450 2C19; read-out: AC50): 39.8 µM (inconclusive) | AC50 (Cytochrome P450 3A4): 4.47 µM (inconclusive)

Nc1ncnc2c1ncn2[C@@H]1O[C@@H](C(=O)NC2CC2)[C@H](O)[C@@H]1O
AC50 (Cytochrome P450 3A4): 1 µM (inconclusive)

C/C(CCN1CCc2nc(-c3ccccc3)c(-c3ccccc3)cc2C1)=N\OC[C@@H](O)[C@@H]1O[C@@H]2OC(C)(C)O[C@@H]2[C@H]1O
AC50 (Cytochrome P450 3A4): 3.98 µM (inconclusive)

CNc1nc(-c2ccc3c(c2)CCN3C(=O)c2ccccc2C)cs1
CC50 [1]: 14.9 µM (active)

Cn1c(O)c(C(c2ccccn2)c2c(O)n(C)c(=S)n(C)c2=O)c(=O)n(C)c1=S
AC50 (Cytochrome P450 2C9): 1.58 µM (inconclusive)

O=C(COc1ccccc1)Nc1ccc2[nH]c(O)nc2c1
CC50 [1]: 26 µM (active)

COc1ccc(NC(S)=NC(=NCS(=O)(=O)c2ccccc2)c2ccccc2)cc1
CC50 [1]: 24.6 µM (active)

N=C(N)CCNC(=O)[C@@H]1CCC(N)=N1.O=S(=O)(O)O
AC50 (Cytochrome P450 2C19): inconclusive

O=C1[C@H]2[C@@H](c3ccc(F)cc3)N3C(=O)N(c4ccc(C(F)(F)F)cc4)C(=O)[C@@]3(Cc3ccccc3)[C@H]2C(=O)N1C1CCCCC1
CC50 [1]: > 50 µM (active)

O=C(NCc1ccco1)c1nc(O)c2nnn(Cc3cccc(Cl)c3)c2n1
AC50 (Cytochrome P450 2C9): 15.8 µM (inconclusive)

COc1ccccc1N1CCN(CC(=O)NCC2CCCO2)CC1 (stereo not given)
IC50 [3]: 51.9 µM (active)

Cc1[nH]nc(-c2ccc(OCc3cnn(-c4ccccc4)c3)cc2O)c1Oc1ccccc1F
AC50 (Cytochrome P450 3A4): 8.91 µM (inconclusive)

Oc1ccc(Br)cc1Cn1nnc2ccccc21
CC50 [1]: 30 µM (active)

COc1cc(CN2CCN(Cc3ccc(C(F)(F)F)cc3)CC2)cc(OC)c1OC
IC50 [3]: 122 µM (active)

COc1ccc(CCNCc2ccccc2)cc1
IC50 [3]: 134 µM (active)

COCCn1c(=O)c(-c2cccs2)nc2cnc(OC)nc21
AC50 (Cytochrome P450 2C19; read-out: AC50): 20 µM (inconclusive) | AC50 (Cytochrome P450 2C9): 39.8 µM (inconclusive)

COc1cccc([C@@H]2Oc3ccc(OC)cc3/C(=N/O[C@@H](C)CN3CCCc4nc(C)c(C)cc43)[C@@H]2O)c1
AC50 (Cytochrome P450 2C19; read-out: AC50): 0.251 µM (inconclusive) | AC50 (Cytochrome P450 2C9): 2 µM (inconclusive)

COc1ccc(NC(=O)c2nc[nH]n2)cc1
AC50 (Cytochrome P450 2C19; read-out: AC50): 31.6 µM (inconclusive) | AC50 (Cytochrome P450 2C9): 0.708 µM (inconclusive)

OC1CNc2c(ccc3ccccc23)C1 (stereo not given)
IC50 [3]: 18.4 µM (active)

COc1ccccc1CNC(=O)C[C@@H]1C[C@H]2c3cc(N(C)C)ccc3O[C@H]2[C@H](CO)O1
IC50 [3]: 153 µM (active)

COc1cc(/C=N/N=C2/SCC(=O)N2c2ccc(O)cc2)ccc1O
IC50 [3]: 65 µM (active)

C/C(CC(=O)NC1CCCC1)=N\NC(=O)Cc1cccs1
AC50 (Cytochrome P450 3A4): 12.6 µM (inconclusive)

CCN1CCN(c2ccc(/N=C/c3ccc(O)cc3O)cc2)CC1
IC50 [3]: 28 µM (active)

O=C(CCC(=O)Nc1ccc(F)cc1)N/N=C/c1ccc(O)cc1
IC50 [3]: 62.8 µM (active)

Cc1ccc(S(=O)(=O)Nc2ccc(NC(=O)CN3CCCCC3)c(Cl)c2)cc1
CC50 [1]: 24.8 µM (active)

Source: ChEMBL document CHEMBL1201862, “PubChem BioAssay data set” (2004)
